Laboratory results published in US9802927B2, “Oxadiazine compounds and methods of use thereof” (Denali Therapeutics, Inc., priority 2015, dated 2017).

System: Aβ42
Assay: In vitro cell screening assay in H4 cells expressing human APP751: Aβ42 by sandwich ELISA
Type: cell-based
Details: compounds 0.003-10 μM, incubated overnight (16-18 h), sandwich ELISA of supernatant
Outline: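 H4 neuroglioma cells stably expressing wild-type human APP751, switched to Pro293 medium and treated with compounds (0.003-10 μM, 0.33% DMSO) for 16-18 h at 37 °C. Supernatant Aβ42 quantified by sandwich ELISA (C-terminal capture, 4G8-HRP detection, A450); EC50 by sigmoidal fit normalized to DMSO and DAPT controls.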

Row | EC50 (Homo sapiens) [nM] | EC50 [nM] | SMILES
1 | 7.8 |  | COc1nc(C2=NOC[C@H](c3cc4ccccc4s3)N2)ccc1-n1cnc(C)c1 [Example 13, (R)-5-(Benzo[b]thiophen-2-yl)-3-(6-methoxy-5-(4-methyl-1H-imidazol-1-yl)pyridin-2-yl)-5,6-dihydro-4H-1,2,4-oxadiazine]
2 |  | 158 | COc1nc(C2=NOCC(c3cn(C)c4cccc(OC)c34)N2)ccc1-n1cnc(C)c1 (single isomer, unassigned; (-)) [Example 252A, (−)-5-(4-methoxy-1-methyl-1H-indol-3-yl)-3-(6-methoxy-5-(4-methyl-1H-imidazol-1-yl)pyridin-2-yl)-5,6-dihydro-4H-1,2,4-oxadiazine]
3 |  | 287 | COc1nc(C2=NOCC(c3cn(C)c4ccc(F)cc34)N2)ccc1-n1cnc(C)c1 (single isomer, unassigned; (-)) [Example 190A, (−)-5-(5-fluoro-1-methyl-1H-indol-3-yl)-3-(6-methoxy-5-(4-methyl-1H-imidazol-1-yl)pyridin-2-yl)-5,6-dihydro-4H-1,2,4-oxadiazine]
4 |  | 695 | COc1nc(C2=NOCC(CC3CC3)N2)ccc1-n1cnc(C)c1 (single isomer, unassigned) [Example 159B, 5-(cyclopropylmethyl)-3-(6-methoxy-5-(4-methyl-1H-imidazol-1-yl)pyridin-2-yl)-5,6-dihydro-4H-1,2,4-oxadiazine]
5 | 28.8 |  | COc1nc(C2=NOCC(c3cn(C)c4cccc(Cl)c34)N2)ccc1-n1cnc(C)c1 (single isomer, unassigned; (+)) [Example 229A, (+)-5-(4-chloro-1-methyl-1H-indol-3-yl)-3-(6-methoxy-5-(4-methyl-1H-imidazol-1-yl)pyridin-2-yl)-5,6-dihydro-4H-1,2,4-oxadiazine]
6 |  | > 3000 | COc1nc(C2=NOCC(c3cccc(C(F)(F)F)c3)N2C)ccc1-n1cnc(C)c1 (stereo not shown) [Example 30B, 3-(6-methoxy-5-(4-methyl-1H-imidazol-1-yl)pyridin-2-yl)-4-methyl-5-(3-(trifluoromethyl)phenyl)-5,6-dihydro-4H-1,2,4-oxadiazine]
7 |  | 450 | COc1nc(C2=NOCC(c3ccc(C#N)cc3)N2)ccc1-n1cnc(C)c1 (single isomer, unassigned; (+)) [Example 151B, (+)-4-(3-(6-methoxy-5-(4-methyl-1H-imidazol-1-yl)pyridin-2-yl)-5,6-dihydro-4H-1,2,4-oxadiazin-5-yl) benzonitrile]
8 |  | 194 | COc1nc(C2=NOCC(c3cn(C(C)C)c4cc(F)ccc34)N2)ccc1-n1cnc(C)c1 (single isomer, unassigned; (-)) [Example 219B, (−)-5-(6-fluoro-1-isopropyl-1H-indol-3-yl)-3-(6-methoxy-5-(4-methyl-1H-imidazol-1-yl)pyridin-2-yl)-5,6-dihydro-4H-1,2,4-oxadiazine]
9 |  | > 3000 | COc1nc(C2=NOCC(c3ccccc3C)N2)ccc1-n1cnc(C)c1 (single isomer, unassigned; (-)) [Example 131B, (−)-3-(6-methoxy-5-(4-methyl-1H-imidazol-1-yl)pyridin-2-yl)-5-(o-tolyl)-5,6-dihydro-4H-1,2,4-oxadiazine]
10 |  | > 3000 | COc1nc(C2=NOCC(c3cc4cccc(C)c4o3)N2)ccc1-n1cnc(C)c1 (single isomer, unassigned) [Example 7A, 3-(6-Methoxy-5-(4-methyl-1H-imidazol-1-yl)pyridin-2-yl)-5-(7-methylbenzofuran-2-yl)-5,6-dihydro-4H-1,2,4-oxadiazine]
11 |  | 2780 | COc1nc(C2=NOCC(c3ccc(F)cc3F)N2)ccc1-n1cnc(C)c1 (single isomer, unassigned) [Example 129A, 5-(2,4-difluorophenyl)-3-(6-methoxy-5-(4-methyl-1H-imidazol-1-yl)pyridin-2-yl)-5,6-dihydro-4H-1,2,4-oxadiazine]
12 |  | 163 | COc1nc(C2=NOCC(c3cn(C)c4ncccc34)N2)ccc1-n1cnc(C)c1 (single isomer, unassigned; (+)) [Example 195B, (+)-3-(6-methoxy-5-(4-methyl-1H-imidazol-1-yl)pyridin-2-yl)-5-(1-methyl-1H-pyrrolo [2,3-b]pyridin-3-yl)-5,6-dihydro-4H-1,2,4-oxadiazine]
13 |  | 2050 | COc1nc(C2=NOCC(c3ccc(S(C)(=O)=O)cc3)N2)ccc1-n1cnc(C)c1 (single isomer, unassigned; (+)) [Example 217B, (+)-3-(6-methoxy-5-(4-methyl-1H-imidazol-1-yl)pyridin-2-yl)-5-(4-(methylsulfonyl)phenyl)-5,6-dihydro-4H-1,2,4-oxadiazine]
14 |  | 944 | COc1nc(C2=NOCC(c3cc4cc(F)ccc4o3)N2)ccc1-n1cnc(C)c1 (single isomer, unassigned; (-)) [Example 84A, (−)-5-(5-fluorobenzofuran-2-yl)-3-(6-methoxy-5-(4-methyl-1H-imidazol-1-yl)pyridin-2-yl)-5,6-dihydro-4H-1,2,4-oxadiazine]
15 |  | 12.9 | COc1nc(C2=NOCC(c3cn(C)c4cc(Cl)cc(OC)c34)N2)ccc1-n1cnc(C)c1 (single isomer, unassigned; (+)) [Example 254B, (+)-5-(6-chloro-4-methoxy-1-methyl-1H-indol-3-yl)-3-(6-methoxy-5-(4-methyl-1H-imidazol-1-yl)pyridin-2-yl)-5,6-dihydro-4H-1,2,4-oxadiazine]
16 |  | 10.4 | COc1nc(C2=NOCC(c3ccc(Cl)c(C)c3)N2)ccc1-n1cnc(C)c1 (single isomer, unassigned; (+)) [Example 86B, (+)-5-(4-chloro-3-methylphenyl)-3-(6-methoxy-5-(4-methyl-1H-imidazol-1-yl)pyridin-2-yl)-5,6-dihydro-4H-1,2,4-oxadiazine]
17 |  | 281 | COc1nc(C2=NOCC(C3CC(F)(F)C3)N2)ccc1-n1cnc(C)c1 (single isomer, unassigned; (+)) [Example 180B, (+)-5-(3,3-difluorocyclobutyl)-3-(6-methoxy-5-(4-methyl-1H-imidazol-1-yl)pyridin-2-yl)-5,6-dihydro-4H-1,2,4-oxadiazine]
18 | > 3000 |  | COc1nc(C2=NOCC(c3ccc(S(C)(=O)=O)cc3)N2)ccc1-n1cnc(C)c1 (single isomer, unassigned; (-)) [Example 217A, (−)-3-(6-methoxy-5-(4-methyl-1H-imidazol-1-yl)pyridin-2-yl)-5-(4-(methylsulfonyl)phenyl)-5,6-dihydro-4H-1,2,4-oxadiazine]
19 |  | 668 | COc1nc(C2=NOCC(c3cccc(Cl)c3)N2)ccc1-n1cnc(C)c1 (single isomer, unassigned; (-)) [Example 244A, (−)-5-(3-chlorophenyl)-3-(6-methoxy-5-(4-methyl-1H-imidazol-1-yl)pyridin-2-yl)-5,6-dihydro-4H-1,2,4-oxadiazine]
20 |  | 54.8 | COc1nc(C2=NOCC(c3nn(C)c4ccccc34)N2)ccc1-n1cnc(C)c1 (single isomer, unassigned; (+)) [Example 124B, (+)-3-(6-methoxy-5-(4-methyl-1H-imidazol-1-yl)pyridin-2-yl)-5-(1-methyl-1H-indazol-3-yl)-5,6-dihydro-4H-1,2,4-oxadiazine]
21 |  | 422 | COc1nc(C2=NOCC(c3cn(C)c4cc(S(C)(=O)=O)ccc34)N2)ccc1-n1cnc(C)c1 (single isomer, unassigned; (+)) [Example 256B, (+)-3-(6-methoxy-5-(4-methyl-1H-imidazol-1-yl)pyridin-2-yl)-5-(1-methyl-6-(methylsulfonyl)-1H-indol-3-yl)-5,6-dihydro-4H-1,2,4-oxadiazine]
22 |  | 19.5 | COc1nc(C2=NOCC(c3cn(C)c4ccc(F)cc34)N2)ccc1-n1cnc(C)c1 (single isomer, unassigned; (+)) [Example 190B, (+)-5-(5-fluoro-1-methyl-1H-indol-3-yl)-3-(6-methoxy-5-(4-methyl-1H-imidazol-1-yl)pyridin-2-yl)-5,6-dihydro-4H-1,2,4-oxadiazine]
23 |  | 262 | COc1nc(C2=NOCC(c3cn(C4CC4)c4cc(F)ccc34)N2)ccc1-n1cnc(C)c1 (single isomer, unassigned; (-)) [Example 228A, (−)-5-(1-cyclopropyl-6-fluoro-1H-indol-3-yl)-3-(6-methoxy-5-(4-methyl-1H-imidazol-1-yl)pyridin-2-yl)-5,6-dihydro-4H-1,2,4-oxadiazine]
24 |  | 57.8 | COc1nc(C2=NOCC(C3CCCCC3)N2)ccc1-n1cnc(C)c1 (single isomer, unassigned; (+)) [Example 61B, (+)-5-cyclohexyl-3-(6-methoxy-5-(4-methyl-1H-imidazol-1-yl)pyridin-2-yl)-5,6-dihydro-4H-1,2,4-oxadiazine]
25 |  | 97 | COc1nc(C2=NOCC(c3ccccc3)N2)ccc1-n1cnc(C)c1 (single isomer, unassigned) [Example 36B, 3-(6-methoxy-5-(4-methyl-1H-imidazol-1-yl)pyridin-2-yl)-5-phenyl-5,6-dihydro-4H-1,2,4-oxadiazine]
26 |  | 24 | COc1nc(C2=NOCC(c3cn(C)c4ccccc34)N2)ccc1-n1cnc(C)c1 (single isomer, unassigned; (+)) [Example 189A, (+)-3-(6-methoxy-5-(4-methyl-1H-imidazol-1-yl)pyridin-2-yl)-5-(1-methyl-1H-indol-3-yl)-5,6-dihydro-4H-1,2,4-oxadiazine]
27 |  | 73 | COc1nc(C2=NOCC(c3ccc(OC(F)F)cc3)N2)ccc1-n1cnc(C)c1 (single isomer, unassigned; (+)) [Example 93B, (+)-5-(4-(difluoromethoxy)phenyl)-3-(6-methoxy-5-(4-methyl-1H-imidazol-1-yl)pyridin-2-yl)-5,6-dihydro-4H-1,2,4-oxadiazine]
28 |  | 102 | COc1nc(C2=NOCC(c3ccccc3C)N2)ccc1-n1cnc(C)c1 (single isomer, unassigned; (+)) [Example 131A, (+)-3-(6-methoxy-5-(4-methyl-1H-imidazol-1-yl)pyridin-2-yl)-5-(o-tolyl)-5,6-dihydro-4H-1,2,4-oxadiazine]
